Among the data in ChEMBL document CHEMBL1833857, “Histone deacetylase activators: N-acetylthioureas serve as highly potent and isozyme selective activators for human histone deacetylase-8 on a fluorescent substrate” (Bioorg Med Chem Lett, 2011) are fold change (FC), inhibition and Activity values, retold here.

In assay [1] the target is T1, Histone deacetylase 8 (Homo sapiens) (UniProt Q9BY41).
T1 sequence (whole entry): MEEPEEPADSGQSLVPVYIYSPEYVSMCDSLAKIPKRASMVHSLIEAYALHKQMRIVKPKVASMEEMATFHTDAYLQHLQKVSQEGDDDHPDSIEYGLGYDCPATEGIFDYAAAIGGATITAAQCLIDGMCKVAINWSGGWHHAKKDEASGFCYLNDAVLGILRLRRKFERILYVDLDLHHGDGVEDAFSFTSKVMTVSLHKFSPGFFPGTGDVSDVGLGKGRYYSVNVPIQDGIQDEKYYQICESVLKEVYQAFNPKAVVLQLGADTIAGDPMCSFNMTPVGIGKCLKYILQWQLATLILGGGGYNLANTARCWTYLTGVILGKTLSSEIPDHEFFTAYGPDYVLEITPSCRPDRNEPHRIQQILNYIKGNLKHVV
Nature of the assay: Activation of recombinant human HDAC8 assessed as ratio of the initial rate of reaction in the absence and presence of compound using Fluor-de-Lys as substrate at 10 uM by spectrofluorometry.

For assay [2], the target named is Histone deacetylase 1 (Homo sapiens) (UniProt Q13547). Nature of the assay: Inhibition of HDAC1 using Fluor-de-Lys as substrate at 100 uM by spectrofluorometry.
Sequence of Histone deacetylase 1 (Homo sapiens) (Q13547 whole entry): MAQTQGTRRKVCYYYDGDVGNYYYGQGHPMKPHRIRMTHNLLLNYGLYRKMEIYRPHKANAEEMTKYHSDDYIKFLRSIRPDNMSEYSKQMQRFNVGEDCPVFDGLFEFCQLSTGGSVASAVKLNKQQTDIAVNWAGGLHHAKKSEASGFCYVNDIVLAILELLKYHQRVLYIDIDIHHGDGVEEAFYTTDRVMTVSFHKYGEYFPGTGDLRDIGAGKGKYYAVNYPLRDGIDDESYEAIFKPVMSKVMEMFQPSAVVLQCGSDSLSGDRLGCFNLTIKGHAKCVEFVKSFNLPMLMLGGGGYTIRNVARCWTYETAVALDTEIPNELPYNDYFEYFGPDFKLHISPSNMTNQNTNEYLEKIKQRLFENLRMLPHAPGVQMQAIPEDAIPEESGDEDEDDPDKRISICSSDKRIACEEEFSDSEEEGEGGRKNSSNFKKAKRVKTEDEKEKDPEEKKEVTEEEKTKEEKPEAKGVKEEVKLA
The target in assay [3] is Histone deacetylase 2 (Homo sapiens) (UniProt Q92769). Nature of the assay: Inhibition of HDAC2 using Fluor-de-Lys as substrate at 100 uM by spectrofluorometry.
Sequence of Histone deacetylase 2 (Homo sapiens) (Q92769 whole entry): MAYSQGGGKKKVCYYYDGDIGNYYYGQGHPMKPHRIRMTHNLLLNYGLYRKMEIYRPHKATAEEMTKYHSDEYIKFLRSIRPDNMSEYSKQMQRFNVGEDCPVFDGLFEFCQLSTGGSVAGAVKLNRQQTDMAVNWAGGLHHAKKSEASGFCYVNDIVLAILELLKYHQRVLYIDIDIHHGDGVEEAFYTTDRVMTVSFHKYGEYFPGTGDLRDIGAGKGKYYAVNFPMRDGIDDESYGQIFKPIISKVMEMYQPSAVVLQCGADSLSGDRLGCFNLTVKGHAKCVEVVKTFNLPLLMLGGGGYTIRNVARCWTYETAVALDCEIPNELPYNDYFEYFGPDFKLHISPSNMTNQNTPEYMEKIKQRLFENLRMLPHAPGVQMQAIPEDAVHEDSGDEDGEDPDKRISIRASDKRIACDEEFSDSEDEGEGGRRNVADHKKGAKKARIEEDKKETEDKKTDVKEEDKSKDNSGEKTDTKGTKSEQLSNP
In assay [4] the target is Histone deacetylase 3 (Homo sapiens) (UniProt O15379). Kind of assay: Inhibition of HDAC3 using Fluor-de-Lys as substrate at 100 uM by spectrofluorometry.
Sequence of Histone deacetylase 3 (Homo sapiens) (O15379 whole entry): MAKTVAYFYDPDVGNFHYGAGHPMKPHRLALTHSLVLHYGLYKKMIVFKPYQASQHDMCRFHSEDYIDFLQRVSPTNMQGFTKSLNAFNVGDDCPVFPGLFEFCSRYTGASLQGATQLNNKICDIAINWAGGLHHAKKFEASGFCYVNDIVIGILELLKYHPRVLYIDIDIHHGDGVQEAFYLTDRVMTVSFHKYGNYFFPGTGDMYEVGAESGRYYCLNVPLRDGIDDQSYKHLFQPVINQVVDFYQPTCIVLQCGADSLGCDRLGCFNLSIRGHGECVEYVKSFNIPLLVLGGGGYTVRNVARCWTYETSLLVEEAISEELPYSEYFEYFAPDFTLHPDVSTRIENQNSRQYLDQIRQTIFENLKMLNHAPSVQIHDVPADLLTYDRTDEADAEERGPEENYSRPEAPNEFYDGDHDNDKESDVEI
Assay [5] addresses Histone deacetylase 4 (Homo sapiens) (UniProt P56524). Kind of assay: Inhibition of HDAC4 using trifluoroacetyl-lysine containing fluorogenic substrate at 100 uM by spectrofluorometry.
Assay [6] has as its target T2, Protein deacetylase HDAC6 (Homo sapiens) (UniProt Q9UBN7).
T2 sequence (whole entry): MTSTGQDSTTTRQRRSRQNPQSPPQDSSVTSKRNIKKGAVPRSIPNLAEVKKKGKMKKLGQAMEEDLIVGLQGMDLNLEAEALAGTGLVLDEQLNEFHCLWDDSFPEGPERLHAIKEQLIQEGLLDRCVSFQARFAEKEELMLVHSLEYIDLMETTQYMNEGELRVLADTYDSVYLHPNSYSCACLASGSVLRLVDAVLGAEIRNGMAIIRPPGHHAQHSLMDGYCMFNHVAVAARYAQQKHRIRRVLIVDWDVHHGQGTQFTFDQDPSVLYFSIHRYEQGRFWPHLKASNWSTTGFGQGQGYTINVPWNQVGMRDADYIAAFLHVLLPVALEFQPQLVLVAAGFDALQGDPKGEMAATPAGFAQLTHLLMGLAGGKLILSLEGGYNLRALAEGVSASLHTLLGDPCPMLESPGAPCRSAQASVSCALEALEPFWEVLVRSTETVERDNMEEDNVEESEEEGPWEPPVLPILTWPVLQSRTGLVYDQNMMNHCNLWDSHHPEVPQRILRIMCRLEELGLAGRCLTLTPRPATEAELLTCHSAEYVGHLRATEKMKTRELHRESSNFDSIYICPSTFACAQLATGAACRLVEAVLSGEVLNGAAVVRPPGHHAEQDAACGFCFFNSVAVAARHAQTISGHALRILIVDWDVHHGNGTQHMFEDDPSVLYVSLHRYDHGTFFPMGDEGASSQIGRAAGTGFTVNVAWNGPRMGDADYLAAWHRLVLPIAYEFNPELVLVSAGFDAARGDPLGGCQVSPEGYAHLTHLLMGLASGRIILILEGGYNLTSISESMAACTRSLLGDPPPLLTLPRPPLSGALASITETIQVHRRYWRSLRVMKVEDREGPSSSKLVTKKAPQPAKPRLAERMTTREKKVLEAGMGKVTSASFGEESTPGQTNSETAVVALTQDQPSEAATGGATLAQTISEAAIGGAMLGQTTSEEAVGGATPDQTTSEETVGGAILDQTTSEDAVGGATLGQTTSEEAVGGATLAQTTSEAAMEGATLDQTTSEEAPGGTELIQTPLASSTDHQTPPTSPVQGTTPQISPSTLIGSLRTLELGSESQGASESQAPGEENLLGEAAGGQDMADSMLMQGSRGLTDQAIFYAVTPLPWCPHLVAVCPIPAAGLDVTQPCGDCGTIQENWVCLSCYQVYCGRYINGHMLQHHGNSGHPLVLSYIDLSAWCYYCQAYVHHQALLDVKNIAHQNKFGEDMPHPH
Kind of assay: Inhibition of HDAC6 using Fluor-de-Lys as substrate at 100 uM by spectrofluorometry.

Assay [7] has as its target T3, Polyamine deacetylase HDAC10 (Homo sapiens) (UniProt Q969S8).
T3 sequence (whole entry): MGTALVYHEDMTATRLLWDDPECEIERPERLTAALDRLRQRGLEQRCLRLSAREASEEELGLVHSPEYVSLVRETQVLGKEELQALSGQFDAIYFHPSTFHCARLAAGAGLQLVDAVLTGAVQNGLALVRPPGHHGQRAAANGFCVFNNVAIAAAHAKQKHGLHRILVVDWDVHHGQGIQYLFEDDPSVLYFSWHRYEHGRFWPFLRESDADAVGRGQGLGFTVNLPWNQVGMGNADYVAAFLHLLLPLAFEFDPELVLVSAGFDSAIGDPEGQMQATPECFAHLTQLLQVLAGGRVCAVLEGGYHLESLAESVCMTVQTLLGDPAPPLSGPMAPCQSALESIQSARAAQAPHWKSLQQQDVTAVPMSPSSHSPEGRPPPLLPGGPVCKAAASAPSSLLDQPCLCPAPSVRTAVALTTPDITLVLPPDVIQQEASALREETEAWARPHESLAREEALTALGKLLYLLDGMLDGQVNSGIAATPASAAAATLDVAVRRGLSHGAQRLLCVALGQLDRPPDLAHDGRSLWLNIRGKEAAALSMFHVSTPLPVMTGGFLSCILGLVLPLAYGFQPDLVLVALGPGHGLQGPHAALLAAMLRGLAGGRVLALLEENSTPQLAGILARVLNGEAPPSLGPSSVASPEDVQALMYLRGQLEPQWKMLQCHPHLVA
Kind of assay: Inhibition of HDAC10 using Fluor-de-Lys as substrate at 100 uM by spectrofluorometry.

The target of assay [8] is T4, Histone deacetylase 11 (Homo sapiens) (UniProt Q96DB2).
T4 sequence (whole entry): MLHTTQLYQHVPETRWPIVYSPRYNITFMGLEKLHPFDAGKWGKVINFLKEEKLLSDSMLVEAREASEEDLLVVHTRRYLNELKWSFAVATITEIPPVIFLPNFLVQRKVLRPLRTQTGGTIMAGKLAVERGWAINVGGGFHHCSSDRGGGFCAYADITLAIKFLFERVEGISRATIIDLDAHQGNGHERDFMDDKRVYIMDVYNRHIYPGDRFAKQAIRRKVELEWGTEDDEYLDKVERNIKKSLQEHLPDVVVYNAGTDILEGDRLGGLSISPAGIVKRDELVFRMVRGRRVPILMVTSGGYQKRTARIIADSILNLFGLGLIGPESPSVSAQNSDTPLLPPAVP
Nature of the assay: Inhibition of HDAC11 using Fluor-de-Lys as substrate at 100 uM by spectrofluorometry.

Assay [9] deals with Histone deacetylase 1 (Homo sapiens) (UniProt Q13547). Kind of assay: Activation of HDAC1 using Fluor-de-Lys as substrate at 100 uM by spectrofluorometry.
The target of assay [10] is Histone deacetylase 3 (Homo sapiens) (UniProt O15379). Nature of the assay: Activation of HDAC3 using Fluor-de-Lys as substrate at 100 uM by spectrofluorometry.
The target of assay [11] is Histone deacetylase 4 (Homo sapiens) (UniProt P56524). Nature of the assay: Activation of HDAC4 using trifluoroacetyl-lysine containing fluorogenic substrate at 100 uM by spectrofluorometry.
Sequence of Histone deacetylase 4 (Homo sapiens) (P56524 whole entry): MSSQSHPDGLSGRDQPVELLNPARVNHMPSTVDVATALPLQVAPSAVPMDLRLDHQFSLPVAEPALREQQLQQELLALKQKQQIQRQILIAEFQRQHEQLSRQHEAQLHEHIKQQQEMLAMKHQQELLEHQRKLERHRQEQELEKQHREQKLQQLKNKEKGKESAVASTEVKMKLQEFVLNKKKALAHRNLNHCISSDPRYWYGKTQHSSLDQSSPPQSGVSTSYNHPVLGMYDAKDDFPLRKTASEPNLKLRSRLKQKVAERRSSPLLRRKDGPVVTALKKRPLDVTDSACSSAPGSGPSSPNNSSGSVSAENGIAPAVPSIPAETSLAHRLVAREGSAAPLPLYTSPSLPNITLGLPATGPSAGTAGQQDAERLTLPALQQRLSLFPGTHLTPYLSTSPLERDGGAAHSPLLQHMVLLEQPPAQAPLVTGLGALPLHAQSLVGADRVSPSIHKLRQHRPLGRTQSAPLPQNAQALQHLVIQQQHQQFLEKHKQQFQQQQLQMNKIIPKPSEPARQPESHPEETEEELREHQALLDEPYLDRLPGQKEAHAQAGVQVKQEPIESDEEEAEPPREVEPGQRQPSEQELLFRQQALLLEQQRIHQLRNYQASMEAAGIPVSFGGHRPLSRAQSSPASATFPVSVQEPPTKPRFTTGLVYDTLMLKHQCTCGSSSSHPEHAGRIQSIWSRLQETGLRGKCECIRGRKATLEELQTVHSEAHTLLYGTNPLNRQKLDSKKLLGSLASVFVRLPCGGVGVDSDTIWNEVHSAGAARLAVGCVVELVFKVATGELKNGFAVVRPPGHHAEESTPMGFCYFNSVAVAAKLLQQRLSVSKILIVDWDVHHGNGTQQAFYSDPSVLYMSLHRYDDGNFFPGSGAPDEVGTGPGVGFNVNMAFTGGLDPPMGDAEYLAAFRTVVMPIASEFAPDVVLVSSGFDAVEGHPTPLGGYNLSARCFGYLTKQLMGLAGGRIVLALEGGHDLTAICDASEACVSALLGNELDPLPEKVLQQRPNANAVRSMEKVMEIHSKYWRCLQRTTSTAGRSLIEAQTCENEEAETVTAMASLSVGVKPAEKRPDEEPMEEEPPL
Assay [12] has as its target T2, Protein deacetylase HDAC6 (Homo sapiens). Nature of the assay: Activation of HDAC6 using Fluor-de-Lys as substrate at 100 uM by spectrofluorometry.
The target in assay [13] is Histone deacetylase 1 (Homo sapiens) (UniProt Q13547). Nature of the assay: Activation of HDAC1 using Fluor-de-Lys as substrate at 10 uM by spectrofluorometry.
Assay [14] addresses Histone deacetylase 3 (Homo sapiens) (UniProt O15379). Kind of assay: Activation of HDAC3 using Fluor-de-Lys as substrate at 10 uM by spectrofluorometry.
Assay [15] concerns the target Histone deacetylase 4 (Homo sapiens) (UniProt P56524). Nature of the assay: Activation of HDAC4 using trifluoroacetyl-lysine containing fluorogenic substrate at 10 uM by spectrofluorometry.
The target in assay [16] is T2, Protein deacetylase HDAC6 (Homo sapiens). Nature of the assay: Activation of HDAC6 using Fluor-de-Lys as substrate at 10 uM by spectrofluorometry.
For assay [17], the target named is Histone deacetylase 2 (Homo sapiens) (UniProt Q92769). Kind of assay: Activation of HDAC2 using Fluor-de-Lys as substrate at 100 uM by spectrofluorometry.
Assay [18] shares this target. Kind of assay: Activation of HDAC2 using Fluor-de-Lys as substrate at 10 uM by spectrofluorometry.

Active and inactive are the calls of the source. No cut-off for these calls is given here.

With `C[C@H](NC(=S)NC(=O)c1ccccc1)c1ccccc1`, the fold change (FC) in assay [1] was determined as 4.5. Besides, the inhibition entry in assay [2], in [4], in assay [5] and in assay [6] was “inactive” in each case. Further, the inhibition – broadly, how much of the control response was suppressed – was determined as 5% in assay [3], 10% in [7] and 10% in assay [8]. For the same compound, the result in assay [9], in [10], in [11], in assay [12], in [13] and in assay [14] was inactive. Besides, the result in assay [15] and in assay [16] was inactive.
Consider `O=C(NC(=S)NCc1ccc(-c2ccccc2)cc1)c1ccccc1`, for which the fold change (FC) in [1] amounted to 1.1. The inhibition entry in assay [2], in assay [4], in [5] and in assay [6] was “inactive” in each case. The inhibition in [3] came to 10%; in assay [7], 5%; in assay [8] it was 10%. Moreover, the result in assay [9], in [10], in [11], in assay [12], in [13] and in [14] was inactive. Besides, the result in [15] and in assay [16] was inactive.
For the compound `C[C@@H](NC(=S)NC(=O)c1ccccc1)c1ccccc1`, the fold change (FC) in assay [1] amounted to 1.5. Besides, the inhibition in [3] amounted to 6%; in assay [4] it was 6%; in [6] it was 45%; in [7], 5%; in assay [8], 8%. In addition, in assay [5], the inhibition result was “inactive”. This compound also returned an Activity in assay [9] of 4%. The result in [11], in [13] and in [15] was inactive.
For `O=C(NC(=S)NCc1cccs1)c1ccccc1`, the fold change (FC) in assay [1] is 3. Further, the inhibition result in assay [2] and in [5] was “inactive” throughout. The inhibition stood at 9% in assay [3]; 5% in [4]; 10% in assay [6]; 47% in [7]; 12% in [8]. The result in assay [9], in assay [11], in assay [13] and in assay [15] was inactive.
For `COc1cc(NC(=S)NC(=O)c2ccccc2)cc(OC)c1`, the fold change (FC) in assay [1] turned out to be 8.4. The inhibition result in assay [2] and in [5] was “inactive” each time. Besides, the inhibition turned out to be 6% in assay [3]; 5% in assay [4]; 5% in assay [6]; 10% in assay [7]; 10% in assay [8]. Moreover, the outcome in [9], in [11], in assay [13] and in assay [15] was inactive.
As to `O=C(NC(=S)NCc1cc(C(F)(F)F)cc(C(F)(F)F)c1)c1ccccc1`, the fold change (FC) in [1] was found to be 1.1. Also, the inhibition result in assay [2], in assay [3], in [4] and in assay [5] was “inactive” throughout. The inhibition in [6], in [7] and in assay [8] was 10% throughout. In addition, the outcome in [9], in assay [17], in assay [10], in assay [11], in [13] and in assay [18] was inactive. Moreover, the outcome in [14] and in [15] was inactive.
